{"source": "patent US9023865B2", "about": "“Compounds that are ERK inhibitors” (Merck Sharp & Dohme Corp., priority 2011, dated 2015)"}
{"molecular_target": "Active Human ERK2 (hERK2) (Homo sapiens (Human), UniProt P28482)", "sequence (P28482 whole entry)": "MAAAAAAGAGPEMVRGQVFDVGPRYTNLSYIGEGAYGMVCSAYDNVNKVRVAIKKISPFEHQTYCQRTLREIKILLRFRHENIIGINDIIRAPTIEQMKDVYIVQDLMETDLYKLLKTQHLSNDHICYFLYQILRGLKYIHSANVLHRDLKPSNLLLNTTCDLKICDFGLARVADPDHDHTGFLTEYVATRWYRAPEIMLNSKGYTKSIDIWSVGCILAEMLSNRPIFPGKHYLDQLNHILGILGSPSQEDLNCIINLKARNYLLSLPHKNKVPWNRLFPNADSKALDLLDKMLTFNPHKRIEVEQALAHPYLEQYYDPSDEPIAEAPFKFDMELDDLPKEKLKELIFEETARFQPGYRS", "test": "Active Human ERK2 (hERK2) Activity Assay (IMAP-FP)", "format": "biochemical", "settings": "phosphorylated active hERK2, 30 μM ATP; average; read-out: ERK 2 Human average IC50", "procedure": "(§1) Assays Active Human ERK2 (hERK2) Activity Assay:\n(§2) Activated ERK2 activity was determined in an IMAP-FP assay (Molecular Devices). […] The final reaction in each well of 25 μL consists of 0.5 nM hERK2, 900 nM unlabeled peptide, 80 nM labeled-peptide, and 30 μM ATP. Phosphorylation reactions were allowed to proceed for 60 minutes and were immediately quenched by the addition of […] IMAP detection beads (1:1000 dilutions) in IMAP binding buffer (Molecular Devices) with 24 mM NaCl. Plates were read on EnVision reader after 60 minutes binding equilibration using Fluorescence Polarization protocol (Perkin Elmer).", "units": {"IC50": "nM"}}
{"smiles": "CNC1(CNC(=O)Nc2cc3[nH]nc(-c4ccnc(C)c4)c3cn2)CCOC1", "note": "(centres unmarked) [Example 197]", "IC50": 53.7}
{"smiles": "CNC(=O)c1n[nH]c2cc(NC(=O)N[C@H](C)c3ccccc3)ncc12", "note": "[Example 137]", "IC50": 4.54}
{"smiles": "C[C@@H](NC(=O)Nc1cc2[nH]nc(-c3ccc4nn(C)cc4c3)c2cn1)c1ccc(Cl)cc1", "note": "[Example 65, 1-[(1R)-1-(4-chlorophenyl)ethyl]-3-[3-(2-methyl-2H-indazol-5-yl)-1H-pyrazolo[4,3-c]pyridin-6-yl]urea]", "IC50": 0.562}
{"smiles": "C[C@@H](NC(=O)Nc1cc2[nH]nc(C(=O)N3CC(=O)N(C)C3)c2cn1)c1ccccc1", "note": "[Example 120]", "IC50": 60.4}
{"smiles": "C[C@@H](NC(=O)Nc1cc2[nH]nc(-c3cnn(C)c3)c2cn1)c1ccc(F)c(Cl)c1", "note": "[Example 72, 1-[(1R)-1-(3-chloro-4-fluorophenyl)ethyl]-3-[3-(1-methyl-1H-pyrazol-4-yl)-1H-pyrazolo[4,3-c]pyridin-6-yl]urea]", "IC50": 0.709}
{"smiles": "Cc1cc(-c2n[nH]c3c(C)c(NC(=O)N[C@H](C)c4ccccc4)ncc23)ccn1", "note": "[Example 174, (R)-1-(7-Methyl-3-(2-methylpyridin-4-yl)-1H-pyrazolo[4,3-c]pyridin-6-yl)-3-(1-phenylethyl)urea]", "IC50": 1.58}
{"smiles": "Cc1cc(-c2n[nH]c3cc(NC(=O)NC(CO)c4cc(F)cc(F)c4)ncc23)ccn1", "note": "(centres unmarked) [Example 365]", "IC50": 0.603}
{"smiles": "O=C(NCC1CCC1)Nc1cc2[nH]nc(-c3ccnc(F)c3)c2cn1", "note": "[Example 591]", "IC50": 1.54}
{"smiles": "N#Cc1cccc(-c2n[nH]c3cc(NC(=O)NCc4ccc(F)cc4)ncc23)c1", "note": "[Example 673]", "IC50": 5.41}
{"smiles": "Cc1cc(-c2n[nH]c3cc(NC(=O)N[C@@H]4CCCOc5ccccc54)ncc23)ccn1", "note": "[Example 285]", "IC50": 0.382}
{"smiles": "Cc1cc(-c2n[nH]c3cc(NC(=O)N[C@H]4[C@H](c5ccccc5C)CN(C)[C@H]4C)ncc23)ccn1", "note": "[Example 555]", "IC50": 0.426}
{"smiles": "Cc1cc(-c2n[nH]c3cc(NC(=O)NC(c4ccccc4)C(F)F)ncc23)ccn1", "note": "(centres unmarked) [Example 379]", "IC50": 1.51}
{"smiles": "Cc1ccc(C2(NC(=O)Nc3cc4[nH]nc(-c5ccnc(C)c5)c4cn3)CC2)cc1", "note": "[Example 342]", "IC50": 40.9}
{"smiles": "Cc1cc(-c2n[nH]c3cc(NC(=O)Nc4noc5cccnc45)ncc23)ccn1", "note": "[Example 493]", "IC50": 0.428}
{"smiles": "Cc1cc(-c2n[nH]c3cc(NC(=O)N[C@@H](CN(C)C)c4ccccc4)ncc23)ccn1", "note": "[Example 481]", "IC50": 10.8}
{"smiles": "CC[C@H](NC(=O)Nc1cc2[nH]nc(-c3ccnc(C)c3)c2cn1)c1ccccn1", "note": "[Example 217]", "IC50": 41.6}
{"smiles": "O=C(NCc1ccno1)Nc1cc2[nH]nc(-c3ccc(F)cc3)c2cn1", "note": "[Example 222]", "IC50": 0.995}
{"smiles": "C[C@@H](NC(=O)Nc1cc2[nH]nc(C(=O)NCC(F)(F)CN3CCCC3)c2cn1)c1ccccc1", "note": "[Example 128]", "IC50": 19}
{"smiles": "Cc1cc(-c2n[nH]c3cc(NC(=O)N[C@@H]4CCCCc5ccccc54)ncc23)ccn1", "note": "[Example 265]", "IC50": 1.64}
{"smiles": "Cc1cc(-c2n[nH]c3cc(NC(=O)NC(c4ccccc4)C4CCCO4)ncc23)ccn1", "note": "(centres unmarked) [Example 237]", "IC50": 0.566}
{"smiles": "C[C@@H](NC(=O)Nc1cc2[nH]nc(C(F)F)c2cn1)c1ccccc1", "note": "[Example 670]", "IC50": 13.6}
{"smiles": "C[C@@H](NC(=O)Nc1cc2[nH]nc(Br)c2cn1)c1ccc(F)c(Cl)c1", "note": "[Example 68, 1-(3-bromo-1H-pyrazolo[4,3-c]pyridin-6-yl)-3-[(1R)-1-(3-chloro-4-fluorophenyl)ethyl]urea]", "IC50": 106}
{"smiles": "Cc1cc(-c2n[nH]c3cc(NC(=O)NC4(c5ccccn5)CCC4)ncc23)ccn1", "note": "[Example 355]", "IC50": 1.54}
{"smiles": "Cc1cc(-c2n[nH]c3cc(NC(=O)NCc4nc(N)cs4)ncc23)ccn1", "note": "[Example 473]", "IC50": 2.69}
{"smiles": "Cc1cc(-c2n[nH]c3cc(NC(=O)N[C@H](c4ccccc4)[C@@H]4CCCO4)ncc23)ccn1", "note": "[Example 552]", "IC50": 23.8}
{"smiles": "Cc1cc(-c2n[nH]c3cc(NC(=O)NCc4cn[nH]c4)ncc23)ccn1", "note": "[Example 420]", "IC50": 2.55}
{"smiles": "Cc1cc(-c2n[nH]c3cc(NC(=O)NCc4ncc(F)cc4Cl)ncc23)ccn1", "note": "[Example 517]", "IC50": 0.761}
{"molecular_target": "Active Human ERK2 (hERK2) (Homo sapiens (Human), UniProt P28482)", "test": "Active Human ERK2 (hERK2) Activity Assay (IMAP-FP)", "format": "biochemical", "settings": "read-out: AERK2 IC50 (Active human ERK2 Activity Assay)", "procedure": "as §1, §2", "units": {"IC50": "nM"}}
{"smiles": "C[C@@H](NC(=O)Nc1cc2[nH]nc(-c3ccc4nn(C)cc4c3)c2cn1)c1ccc(Cl)cc1", "note": "[Example 65, 1-[(1R)-1-(4-chlorophenyl)ethyl]-3-[3-(2-methyl-2H-indazol-5-yl)-1H-pyrazolo[4,3-c]pyridin-6-yl]urea]", "IC50": "0.2 to 1.7"}
{"smiles": "C[C@@H](NC(=O)Nc1cc2[nH]nc(-c3cnn(C)c3)c2cn1)c1ccc(F)c(Cl)c1", "note": "[Example 72, 1-[(1R)-1-(3-chloro-4-fluorophenyl)ethyl]-3-[3-(1-methyl-1H-pyrazol-4-yl)-1H-pyrazolo[4,3-c]pyridin-6-yl]urea]", "IC50": "0.2 to 1.7"}
